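Briefly, cells in 96-well plates were exposed to five compound concentrations for 48 h, and endpoints were estimated by linear interpolation. TGI marks complete inhibition of growth.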
Tests used:
Test in all cases: DTP human tumour cell line panel, 48 h
[1] = test system: HS 578T breast
[2] = test system: OVCAR-8 ovarian
[3] = test system: 786-0 renal
[4] = test system: MCF7 breast
[5] = test system: IGROV1 ovarian
[6] = test system: SR leukemia
[7] = test system: UO-31 renal
[8] = test system: NCI-H23 lung
[9] = test system: RPMI-8226 leukemia
[10] = test system: NCI-H226 lung
[11] = test system: CAKI-1 renal
[12] = test system: HL-60(TB) leukemia
[13] = test system: HT29 colon
[14] = test system: SF-295 CNS
[15] = test system: U251 CNS
[16] = test system: NCI-H522 lung
[17] = test system: RXF 393 renal
[18] = test system: A498 renal
[19] = test system: BT-549 breast

`CC(C)N(/C(F)=N\C(=O)Nc1ccccc1C(F)(F)F)C(C)C` was tested, and the TGI [1] was greater than 100 µM, the TGI [2] was greater than 100 µM and the TGI [3] was greater than 100 µM. For the same compound, the TGI [4] was greater than 100 µM, the TGI [5] was greater than 100 µM and the TGI [6] was greater than 100 µM. It also gave a TGI [7] greater than 100 µM, a TGI [8] greater than 100 µM and a TGI [9] greater than 100 µM. It also gave a TGI [10] greater than 100 µM, a TGI [11] greater than 100 µM and a TGI [12] greater than 100 µM. The TGI [13] was greater than 100 µM, the TGI [14] was greater than 100 µM and the TGI [15] was greater than 100 µM.

`CS/C=C\C(=O)O[C@H]1C[C@@H]2[C@@H](O)c3occ(C)c3C[C@]2(C)[C@@H](C)C1` was tested, and the TGI [1] was 71.5 µM, the TGI [2] was 50.4 µM and the TGI [3] was 30.2 µM. The TGI [16] was 71.7 µM, the TGI [4] was 57.4 µM and the TGI [5] was 40.3 µM. The TGI [6] was 99.4 µM, the TGI [17] was 47.2 µM and the TGI [8] was 85.8 µM. For the same compound, the TGI [9] was 79.9 µM, the TGI [10] was 28.7 µM and the TGI [11] was greater than 100 µM. For the same compound, the TGI [12] was 43.8 µM, the TGI [13] was 51.8 µM and the TGI [14] was 77 µM. It also gave a TGI [15] of 7.93 µM.

For `COc1ccc(-c2nc3c(nc2-c2ccc(OC)cc2)N(C)S(=O)(=O)N=C3N)cc1`, the TGI [2] was greater than 100 µM, the TGI [3] was 50.1 µM and the TGI [16] was 36 µM. The TGI [5] was greater than 100 µM, the TGI [6] was 35.3 µM and the TGI [7] was 53.2 µM. It also gave a TGI [17] of 44.1 µM, a TGI [8] greater than 100 µM and a TGI [9] of 40.6 µM. For the same compound, the TGI [11] was 94.9 µM, the TGI [12] was 43.7 µM and the TGI [13] was 74.9 µM. For the same compound, the TGI [18] was greater than 100 µM, the TGI [14] was 84.3 µM and the TGI [15] was greater than 100 µM.

Compound `CC(C)(SCc1ccccc1)C(N)C(=O)O` (stereo not given) has a TGI [2] greater than 100 µM, a TGI [3] greater than 100 µM and a TGI [16] greater than 100 µM. The TGI [19] was greater than 100 µM, the TGI [5] was greater than 100 µM and the TGI [6] was greater than 100 µM. It also gave a TGI [7] greater than 100 µM, a TGI [17] greater than 100 µM and a TGI [8] greater than 100 µM. It also gave a TGI [9] greater than 100 µM, a TGI [10] greater than 100 µM and a TGI [11] greater than 100 µM. For the same compound, the TGI [12] was greater than 100 µM, the TGI [13] was greater than 100 µM and the TGI [18] was greater than 100 µM. For the same compound, the TGI [14] was greater than 100 µM and the TGI [15] was greater than 100 µM.

`O=P1(Oc2ccccc2)NCc2ncccc2O1` (stereo not given) gave a TGI [2] greater than 100 µM, a TGI [3] greater than 100 µM and a TGI [4] greater than 100 µM. The TGI [19] was greater than 100 µM, the TGI [5] was greater than 100 µM and the TGI [6] was greater than 100 µM. The TGI [7] was greater than 100 µM, the TGI [17] was greater than 100 µM and the TGI [8] was greater than 100 µM. The TGI [9] was greater than 100 µM, the TGI [10] was greater than 100 µM and the TGI [11] was greater than 100 µM. The TGI [13] was greater than 100 µM, the TGI [18] was greater than 100 µM and the TGI [14] was greater than 100 µM. It also gave a TGI [15] greater than 100 µM.

In the case of `CC1=C/C(=C2/N=C(N(C)C)SS2)C(C)=N1`, the TGI [2] is reported as greater than 100 µM, the TGI [3] is reported as greater than 100 µM and the TGI [16] is reported as greater than 100 µM. For the same compound, the TGI [5] was greater than 100 µM, the TGI [6] was greater than 100 µM and the TGI [7] was greater than 100 µM. For the same compound, the TGI [17] was greater than 100 µM, the TGI [8] was greater than 100 µM and the TGI [9] was greater than 100 µM. The TGI [10] was greater than 100 µM, the TGI [11] was greater than 100 µM and the TGI [12] was greater than 100 µM. For the same compound, the TGI [13] was greater than 100 µM, the TGI [18] was greater than 100 µM and the TGI [14] was greater than 100 µM. For the same compound, the TGI [15] was greater than 100 µM.

With `COc1cc2cc3c4c(cc(OC)c(OC)c4c2cc1OC)CCN3C(=O)CCC(=O)O` the TGI [3] was greater than 100 µM, the TGI [16] was greater than 100 µM and the TGI [5] was greater than 100 µM. For the same compound, the TGI [6] was greater than 100 µM, the TGI [7] was greater than 100 µM and the TGI [17] was greater than 100 µM. For the same compound, the TGI [8] was greater than 100 µM, the TGI [9] was greater than 100 µM and the TGI [10] was greater than 100 µM. It also gave a TGI [11] greater than 100 µM, a TGI [12] greater than 100 µM and a TGI [13] greater than 100 µM. It also gave a TGI [18] greater than 100 µM, a TGI [14] greater than 100 µM and a TGI [15] greater than 100 µM.

Compound `O=C1Nc2ccccc2/C1=C\c1c(Cl)nc2n1CCS2` has a TGI [1] of 40.1 µM, a TGI [2] greater than 100 µM and a TGI [3] of 60.6 µM. For the same compound, the TGI [16] was 40.5 µM, the TGI [4] was 60.6 µM and the TGI [19] was 52.8 µM. It also gave a TGI [5] greater than 100 µM, a TGI [7] greater than 100 µM and a TGI [17] of 57.3 µM. The TGI [8] was 65.8 µM, the TGI [9] was greater than 100 µM and the TGI [11] was greater than 100 µM. It also gave a TGI [12] of 48.8 µM, a TGI [13] greater than 100 µM and a TGI [18] of 61.4 µM. The TGI [14] was 99.6 µM and the TGI [15] was 75.6 µM.

For `Cc1ccc(C)c(COCCOCn2c(=O)[nH]c(=O)c3cc(Br)ccc32)c1`, the TGI [2] was greater than 100 µM, the TGI [3] was greater than 100 µM and the TGI [16] was greater than 100 µM. The TGI [4] was greater than 100 µM, the TGI [5] was greater than 100 µM and the TGI [6] was greater than 100 µM. It also gave a TGI [7] greater than 100 µM, a TGI [17] greater than 100 µM and a TGI [8] greater than 100 µM. The TGI [10] was greater than 100 µM, the TGI [11] was greater than 100 µM and the TGI [12] was greater than 100 µM. It also gave a TGI [13] greater than 100 µM, a TGI [18] greater than 100 µM and a TGI [14] greater than 100 µM. The TGI [15] was greater than 100 µM.

`COc1ccc(/C=C2\CN(C)CC3C2=NN(c2ccccc2)C3c2ccc(OC)cc2)cc1` (stereo not given) was tested, and the TGI [1] was greater than 100 µM, the TGI [2] was greater than 100 µM and the TGI [3] was greater than 100 µM. The TGI [16] was greater than 100 µM, the TGI [4] was greater than 100 µM and the TGI [19] was greater than 100 µM. For the same compound, the TGI [5] was greater than 100 µM, the TGI [7] was greater than 100 µM and the TGI [17] was 48.2 µM. It also gave a TGI [8] greater than 100 µM, a TGI [9] greater than 100 µM and a TGI [10] greater than 100 µM. The TGI [11] was greater than 100 µM, the TGI [13] was greater than 100 µM and the TGI [18] was greater than 100 µM. It also gave a TGI [14] greater than 100 µM.

`COc1ccc(-c2cc(-c3ccccc3)nc3c2CC(=O)Nc2ccccc2-3)cc1OC` was tested, and the TGI [2] was 0.447 µM, the TGI [3] was greater than 100 µM and the TGI [16] was greater than 100 µM. It also gave a TGI [4] greater than 43.1 µM, a TGI [19] greater than 100 µM and a TGI [5] greater than 100 µM. For the same compound, the TGI [6] was greater than 100 µM, the TGI [7] was greater than 100 µM and the TGI [17] was greater than 46.3 µM. It also gave a TGI [8] greater than 100 µM, a TGI [9] greater than 100 µM and a TGI [10] greater than 100 µM. It also gave a TGI [11] greater than 100 µM, a TGI [13] greater than 100 µM and a TGI [18] of 50.5 µM. The TGI [14] was greater than 100 µM and the TGI [15] was greater than 100 µM.

In the case of `Cc1c(-c2ccc(O)c(O)c2)oc(=O)c2c(O)cccc12`, the TGI [1] is reported as 23.9 µM, the TGI [2] is reported as greater than 100 µM and the TGI [3] is reported as 23.4 µM. It also gave a TGI [16] of 15.5 µM, a TGI [4] of 34.4 µM and a TGI [19] of 44.6 µM. The TGI [5] was 20.1 µM, the TGI [7] was 24.4 µM and the TGI [17] was 36 µM. For the same compound, the TGI [8] was 22 µM, the TGI [9] was 50 µM and the TGI [11] was 36 µM. It also gave a TGI [12] greater than 100 µM, a TGI [18] of 33.1 µM and a TGI [14] of 42.2 µM. For the same compound, the TGI [15] was 26.1 µM.

Work on `N=C(N)SCc1ccc(N=C=S)cc1` yielded a TGI [1] of 42.1 µM, a TGI [2] of 31.6 µM and a TGI [3] of 26.7 µM. For the same compound, the TGI [16] was 21.6 µM, the TGI [5] was 26.7 µM and the TGI [6] was greater than 100 µM. The TGI [7] was 25 µM, the TGI [17] was 17.8 µM and the TGI [8] was 27.5 µM. It also gave a TGI [9] greater than 100 µM, a TGI [10] of 34.6 µM and a TGI [11] of 25.4 µM. For the same compound, the TGI [12] was 35.9 µM, the TGI [13] was 40.3 µM and the TGI [18] was 26.9 µM. It also gave a TGI [14] of 31.2 µM and a TGI [15] of 29 µM.

For `Cc1[nH]c(=O)nc(N(CCO)/N=C/c2ccc(Cl)cc2)c1C(=O)Nc1ccc(Cl)cc1`, the TGI [1] was greater than 100 µM, the TGI [2] was greater than 100 µM and the TGI [3] was greater than 100 µM. It also gave a TGI [16] greater than 100 µM, a TGI [4] greater than 100 µM and a TGI [5] greater than 100 µM. The TGI [7] was greater than 100 µM, the TGI [17] was 76.3 µM and the TGI [8] was greater than 100 µM. For the same compound, the TGI [10] was greater than 100 µM, the TGI [11] was greater than 100 µM and the TGI [12] was greater than 100 µM. It also gave a TGI [13] greater than 100 µM, a TGI [18] greater than 100 µM and a TGI [14] greater than 100 µM. For the same compound, the TGI [15] was 69.2 µM.

Reference: PubChem BioAssay (NCI)
